Results: ChEMBL document CHEMBL3046192, “Development of new fungicides against Magnaporthe grisea: synthesis and biological activity of pyrazolo[3,4-d][1,3]thiazine, pyrazolo[1,5-c][1,3,5]thiadiazine, and pyrazolo[3,4-d]pyrimidine derivatives” (J Agric Food Chem, 2002)
The source made the active and inactive calls. No cut-off for these calls is given here.

Tested on: Pyricularia grisea
Assay: microbe, parasite or virus in culture
Type: functional
Settings: ATCC 64413, 120 h

Structure (SMILES) | inhibition at 200 µg/mL
Cc1nn(-c2cccc([N+](=O)[O-])c2)c2nc(C(F)(F)F)[nH]c(=S)c12 | 95.9%
Cc1cc2nc(-c3ccccc3)sc(=O)n2n1 | 100%
Cc1cc2nc(C(F)(F)F)sc(=S)n2n1 | 93.2%
Cc1nn(C(C)(C)C)c2nc(-c3ccccc3)sc(=O)c12 | 19%
Cc1n[nH]c2nc(-c3ccccc3)sc(=S)c12 | 21%
Cc1n[nH]c2nc(Cc3ccccc3)sc(=S)c12 | 77%
Cc1nn(C(C)(C)C)c2nc(-c3ccccc3)sc(=S)c12 | 17%
Cc1nn(-c2cccc([N+](=O)[O-])c2)c2nc(C(F)(F)F)sc(=O)c12 | 81.1%
Cc1nn(-c2ccccc2)c2nc(C(F)(F)F)[nH]c(=S)c12 | 58%
Cc1nn(-c2ccc(Cl)c(Cl)c2)c2nc(C(F)(F)F)sc(=S)c12 | 100%
Cc1nn(-c2ccccc2)c2nc(C(F)(F)F)sc(=S)c12 | 43.8%
Cc1nn(-c2cccc([N+](=O)[O-])c2)c2nc(C(F)(F)F)sc(=S)c12 | 100%
Cc1n[nH]c2nc(Cc3ccccc3)sc(=O)c12 | 80%
Cc1nn(C(C)(C)C)c2nc(C(F)(F)F)[nH]c(=S)c12 | 44%
Cc1cc2nc(-c3ccc(Cl)cc3)sc(=O)n2n1 | 66%
Cc1nn(C(C)(C)C)c2nc(C(F)(F)F)sc(=S)c12 | 58.3%
Cc1cc2nc(-c3ccc(Br)cc3)sc(=O)n2n1 | 74%
Cc1cc2nc(C(F)(F)F)sc(=O)n2n1 | 100%
O=c1sc(-c2ccccc2)nc2ccnn12 | 75.1%
Cc1cccc2sc3nncn3c12 [TRICYCLAZOLE] | 94%
Cc1n[nH]c2nc(-c3ccccc3)sc(=O)c12 | 30%
O=c1sc(-c2ccccc2)nc2cc(-c3ccccc3)nn12 | 15%
Cc1nn(-c2ccc(Cl)c(Cl)c2)c2nc(C(F)(F)F)[nH]c(=S)c12 | 100%

Tested on: Oryza sativa
Assay: Toxicity in Oryza sativa (rice) assessed as seedling growth at >10 ug/ml after 10 days
Type: organism-based
Settings: in vivo, 240 h

Structure (SMILES) | Activity
Cc1cc2nc(-c3ccccc3)sc(=O)n2n1 | Toxic

Tested on: Pyricularia grisea
Assay: microbe, parasite or virus in culture
Type: functional
Settings: ATCC 64413, 120 h
Remark: another data set of the same source

Structure (SMILES) | inhibition at 50 µg/mL
Cc1nn(-c2cccc([N+](=O)[O-])c2)c2nc(C(F)(F)F)[nH]c(=S)c12 | 61%
Cc1cc2nc(-c3ccccc3)sc(=O)n2n1 | 100%
Cc1cc2nc(C(F)(F)F)sc(=S)n2n1 | 79.6%
Cc1nn(C(C)(C)C)c2nc(-c3ccccc3)sc(=O)c12 | 14%
Cc1n[nH]c2nc(-c3ccccc3)sc(=S)c12 | 15%
Cc1n[nH]c2nc(Cc3ccccc3)sc(=S)c12 | 75%
Cc1nn(C(C)(C)C)c2nc(-c3ccccc3)sc(=S)c12 | 16%
Cc1nn(-c2cccc([N+](=O)[O-])c2)c2nc(C(F)(F)F)sc(=O)c12 | 39.6%
Cc1nn(-c2ccccc2)c2nc(C(F)(F)F)[nH]c(=S)c12 | 37%
Cc1nn(-c2ccc(Cl)c(Cl)c2)c2nc(C(F)(F)F)sc(=S)c12 | 83.1%
Cc1nn(-c2cccc([N+](=O)[O-])c2)c2nc(C(F)(F)F)sc(=S)c12 | 89.1%
Cc1n[nH]c2nc(Cc3ccccc3)sc(=O)c12 | 57%
Cc1nn(C(C)(C)C)c2nc(C(F)(F)F)[nH]c(=S)c12 | 31%
Cc1cc2nc(-c3ccc(Cl)cc3)sc(=O)n2n1 | 62%
Cc1cc2nc(-c3ccc(Br)cc3)sc(=O)n2n1 | 47%
Cc1cc2nc(C(F)(F)F)sc(=O)n2n1 | 97.9%
O=c1sc(-c2ccccc2)nc2ccnn12 | 70.2%
Cc1cccc2sc3nncn3c12 [TRICYCLAZOLE] | 23.5%
Cc1n[nH]c2nc(-c3ccccc3)sc(=O)c12 | 24%
O=c1sc(-c2ccccc2)nc2cc(-c3ccccc3)nn12 | 15%
Cc1nn(-c2ccc(Cl)c(Cl)c2)c2nc(C(F)(F)F)[nH]c(=S)c12 | 91%

Tested on: Pyricularia grisea
Assay: microbe, parasite or virus in culture
Type: functional
Settings: ATCC 64413, 120 h
Remark: another data set of the same source

Structure (SMILES) | inhibition at 100 µg/mL
Cc1nn(-c2cccc([N+](=O)[O-])c2)c2nc(C(F)(F)F)[nH]c(=S)c12 | 78%
Cc1cc2nc(-c3ccccc3)sc(=O)n2n1 | 100%
Cc1cc2nc(C(F)(F)F)sc(=S)n2n1 | 79.7%
Cc1nn(C(C)(C)C)c2nc(-c3ccccc3)sc(=O)c12 | 16%
Cc1n[nH]c2nc(-c3ccccc3)sc(=S)c12 | 17%
Cc1n[nH]c2nc(Cc3ccccc3)sc(=S)c12 | 76%
Cc1nn(C(C)(C)C)c2nc(-c3ccccc3)sc(=S)c12 | 16%
Cc1nn(-c2cccc([N+](=O)[O-])c2)c2nc(C(F)(F)F)sc(=O)c12 | 54.4%
Cc1nn(-c2ccccc2)c2nc(C(F)(F)F)[nH]c(=S)c12 | 55%
Cc1nn(-c2ccc(Cl)c(Cl)c2)c2nc(C(F)(F)F)sc(=S)c12 | 90.5%
Cc1nn(-c2ccccc2)c2nc(C(F)(F)F)sc(=S)c12 | 29.6%
Cc1nn(-c2cccc([N+](=O)[O-])c2)c2nc(C(F)(F)F)sc(=S)c12 | 91.7%
Cc1n[nH]c2nc(Cc3ccccc3)sc(=O)c12 | 77%
Cc1nn(C(C)(C)C)c2nc(C(F)(F)F)[nH]c(=S)c12 | 35%
Cc1cc2nc(-c3ccc(Cl)cc3)sc(=O)n2n1 | 66%
Cc1nn(C(C)(C)C)c2nc(C(F)(F)F)sc(=S)c12 | 42.7%
Cc1cc2nc(-c3ccc(Br)cc3)sc(=O)n2n1 | 58%
Cc1cc2nc(C(F)(F)F)sc(=O)n2n1 | 99.5%
O=c1sc(-c2ccccc2)nc2ccnn12 | 73.1%
Cc1cccc2sc3nncn3c12 [TRICYCLAZOLE] | 61.5%
Cc1n[nH]c2nc(-c3ccccc3)sc(=O)c12 | 28%
O=c1sc(-c2ccccc2)nc2cc(-c3ccccc3)nn12 | 15%
Cc1nn(-c2ccc(Cl)c(Cl)c2)c2nc(C(F)(F)F)[nH]c(=S)c12 | 100%

Tested on: Pyricularia grisea
Assay: Antifungal activity against Magnaporthe grisea ATCC 64413 assessed as depigmentation of mycelium at 200 ug/ml
Type: functional, organism-based
Settings: not given

Structure (SMILES) | Activity
Cc1n[nH]c2nc(Cc3ccccc3)sc(=S)c12 | Active

Tested on: Pyricularia grisea
Assay: microbe, parasite or virus in culture
Type: functional
Settings: ATCC 64413, 120 h
Remark: another data set of the same source

Structure (SMILES) | inhibition at 10 µg/mL
Cc1nn(-c2cccc([N+](=O)[O-])c2)c2nc(C(F)(F)F)[nH]c(=S)c12 | 32%
Cc1cc2nc(-c3ccccc3)sc(=O)n2n1 | 92.4%
Cc1cc2nc(C(F)(F)F)sc(=S)n2n1 | 48.4%
Cc1nn(C(C)(C)C)c2nc(-c3ccccc3)sc(=O)c12 | 14%
Cc1n[nH]c2nc(-c3ccccc3)sc(=S)c12 | 14%
Cc1n[nH]c2nc(Cc3ccccc3)sc(=S)c12 | 73%
Cc1nn(C(C)(C)C)c2nc(-c3ccccc3)sc(=S)c12 | 14%
Cc1nn(-c2cccc([N+](=O)[O-])c2)c2nc(C(F)(F)F)sc(=O)c12 | 21.9%
Cc1nn(-c2ccccc2)c2nc(C(F)(F)F)[nH]c(=S)c12 | 23%
Cc1nn(-c2ccc(Cl)c(Cl)c2)c2nc(C(F)(F)F)sc(=S)c12 | 57.7%
Cc1nn(-c2cccc([N+](=O)[O-])c2)c2nc(C(F)(F)F)sc(=S)c12 | 71.2%
Cc1n[nH]c2nc(Cc3ccccc3)sc(=O)c12 | 30%
Cc1nn(C(C)(C)C)c2nc(C(F)(F)F)[nH]c(=S)c12 | 25%
Cc1cc2nc(-c3ccc(Cl)cc3)sc(=O)n2n1 | 17%
Cc1cc2nc(-c3ccc(Br)cc3)sc(=O)n2n1 | 47%
Cc1cc2nc(C(F)(F)F)sc(=O)n2n1 | 64.5%
O=c1sc(-c2ccccc2)nc2ccnn12 | 67%
Cc1cccc2sc3nncn3c12 [TRICYCLAZOLE] | 0%
Cc1n[nH]c2nc(-c3ccccc3)sc(=O)c12 | 16%
O=c1sc(-c2ccccc2)nc2cc(-c3ccccc3)nn12 | 15%
Cc1nn(-c2ccc(Cl)c(Cl)c2)c2nc(C(F)(F)F)[nH]c(=S)c12 | 52%

Tested on: Oryza sativa
Assay: Toxicity in Oryza sativa (rice) assessed as cell culture growth at 1 to 10 ug/ml after 10 days
Type: organism-based
Settings: 240 h

Structure (SMILES) | Activity
Cc1cc2nc(-c3ccccc3)sc(=O)n2n1 | Non-toxic

Tested on: Oryza sativa
Assay: Toxicity in Oryza sativa (rice) assessed as seedling growth at 1 to 10 ug/ml after 10 days
Type: organism-based
Settings: in vivo, 240 h

Structure (SMILES) | Activity
Cc1cc2nc(-c3ccccc3)sc(=O)n2n1 | Non-toxic

Tested on: Pyricularia grisea
Assay: Antifungal activity against Magnaporthe grisea ATCC 64413 infected rice plant assessed as growth inhibition at 1 to 10 ug/ml after 5 days
Type: functional, organism-based
Settings: not given

Structure (SMILES) | Activity
Cc1cc2nc(-c3ccccc3)sc(=O)n2n1 | Active
